Assay results: US20080071116A1, “Modulators of Lysophosphatidic Acid (Lpa) Signaling and the Use Thereof” (THE BOARD OF REGENTS OF THE UNIVERSITY OF TEXAS SYSTEM, priority 2004, published 2008)

Columns and labels:
LPA1 receptor = LPA1 receptor (Homo sapiens, UniProt Q92633); experiment: calcium mobilization in Sf9 insect cells expressing LPA1; type: cell-based
PC-3 cells = experiment: membrane ruffling and cell migration in PC-3 cells; type: cell-based, human
LPA2 receptor = LPA2 receptor (Homo sapiens, UniProt Q9HBW0); experiment: calcium mobilization in Sf9 insect cells expressing LPA2; type: cell-based; parameters: expressed in transfected cells; host or cells: Sf9 insect cells
Sequence of LPA2 receptor (Q9HBW0 whole entry): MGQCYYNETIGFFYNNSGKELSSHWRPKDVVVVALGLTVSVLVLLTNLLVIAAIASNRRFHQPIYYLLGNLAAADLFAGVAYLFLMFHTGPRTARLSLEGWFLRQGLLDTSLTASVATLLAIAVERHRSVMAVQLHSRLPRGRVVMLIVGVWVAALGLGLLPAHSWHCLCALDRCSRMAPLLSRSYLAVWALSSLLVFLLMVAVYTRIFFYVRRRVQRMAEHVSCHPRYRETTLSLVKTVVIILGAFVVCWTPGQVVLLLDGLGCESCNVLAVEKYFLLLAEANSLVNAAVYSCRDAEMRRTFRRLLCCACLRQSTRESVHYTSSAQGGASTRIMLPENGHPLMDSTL

Sequence of LPA1 receptor (Q92633 whole entry): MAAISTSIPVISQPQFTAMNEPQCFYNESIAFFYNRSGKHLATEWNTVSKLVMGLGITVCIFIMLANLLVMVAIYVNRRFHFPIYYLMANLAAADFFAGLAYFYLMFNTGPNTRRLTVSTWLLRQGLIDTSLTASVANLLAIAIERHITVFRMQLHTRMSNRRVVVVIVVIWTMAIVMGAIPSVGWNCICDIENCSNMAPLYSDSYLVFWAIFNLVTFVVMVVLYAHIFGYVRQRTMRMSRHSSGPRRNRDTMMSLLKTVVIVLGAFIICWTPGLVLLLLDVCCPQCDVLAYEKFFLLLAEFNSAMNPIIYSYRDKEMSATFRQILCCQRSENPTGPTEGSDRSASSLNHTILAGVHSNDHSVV

## CCCCCCCC/C=C\CCCCCCCC(=O)OCC(COP(O)(O)=S)OC (racemic) [OMPT, 1-oleoyl-sn2-O-methyl-rac-glycero-3-phosphothionate]
LPA1 receptor
  EC50: > 10 µM
PC-3 cells
  stimulation of membrane ruffling and cell migration: induces neither morphology changes nor migration
LPA2 receptor; Sf9 cells expressing LPA2, FIG. 58B
  calcium mobilization: did not induce calcium mobilization
LPA2 receptor; Sf9 cells expressing LPA2, read-out: EC50 of increase in intracellular calcium concentration
  EC50: > 10 µM
